Experimental data from publication PMC9820316, “Novel Arylpiperazine Derivatives of Salicylamide with α1-Adrenolytic Properties Showed Antiarrhythmic and Hypotensive Properties in Rats” (International Journal of Molecular Sciences, 2022).
Marks after values point to notes of the source that are not given here.

Legend:
α1-adrenergic receptors = assay: α1-adrenoceptor radioligand binding assay ([3H]-prazosin, rat cortex); conditions: rat cortex tissue, mean ± SEM
Procedure: The α1- and α2-adrenoceptor radioligand binding assays were performed on the rat cerebral cortex using previously described methods. […] The brains were homogenized using the ULTRA-TURRAX homogenizer in 10 mL of an ice-cold 50 mM Tris-HCl buffer (pH 7.6). The homogenates were centrifuged at 20,000× g for 20 min (0–4 °C). Subsequently, the cell pellet was resuspended in the Tris–HCl buffer and centrifuged again. Radioligand binding assays were carried out in plates (MultiScreen/Millipore). The final incubation mixture, with a volume of 300 μL, consisted of 240 μL of the tissue suspension, 30 μL of the radioligand solution, and 30 μL of the buffer containing 7–8 concentrations of the studied compounds. In order to measure the unspecific binding, 10 μM phentolamine (for [^3H]-prazosin) or 10 μM clonidine (for [^3H]-clonidine) were utilized. The incubation was completed by rapid filtration through Whatman GF/C filters using a vacuum manifold (Millipore). The filters were then washed twice with the assay buffer and placed in scintillation vials with a liquid scintillation cocktail. Radioactivity was measured in a WALLAC 1409 DSA liquid scintillation counter (Perkin Elmer, USA). All the assays were performed in duplicates, and the inhibitory constants (Ki) were calculated.

[1] = system: pressor response to methoxamine in rats; assay: Influence on blood vasopressor response to methoxamine in rats; assay type: in vivo, rat; conditions: 2.5 mg/kg iv, methoxamine 150 μg/kg before and 5 min after compound
Procedure: The experiment was performed to establish the effect of the studied derivatives on the pressor response to methoxamine (150 µg/kg, iv), according to the methods described previously. Normotensive Wistar rats were anesthetized with thiopental (75 mg/kg ip). The right carotid artery was cannulated with a polyethylene tube filled with heparin solution using a Datamax apparatus (Columbus Instruments, Columbus, OH, USA). After a 15-min stabilization period, the pressor response to methoxamine before (control) and 5 min after the administration of the tested compounds was measured (Figure 4B). The tested compounds were administered at the lowest hypotensive dose.

normal ECG in rats = assay: Effect on a normal electrocardiogram in rats; assay type: in vivo, rat; conditions: for HR—heart rate / PQ interval / QRS complex / QTc (Bazzett's formula) / decrease of the heart rate: 5 mg/kg iv; for HR—heart rate / PQ interval / QRS complex / QTc (Bazzett's formula): mean ± SD; for PQ interval / QRS complex / QTc (Bazzett's formula): in ms (unit assumed)
Procedure: The procedure was performed to exclude the negative effects of the tested compounds on the normal ECG, according to the method described earlier. […] Firstly, animals were anesthetized with thiopental (75 mg/kg ip). […] The influence on PQ, QTc interval, QRS complex, and heart rate was evaluated. The Bazzett’s formula: QTc = QT/√RR was used to calculate QTc. All the studied compounds were administered at a dose of 5 mg/kg.

[2] = system: adrenaline-induced arrhythmia model in rats; assay: Prophylactic antiarrhythmic activity in adrenaline-induced arrhythmia; assay type: in vivo, rat; conditions: for Blocks / Bradycardia / Extrasystoles / Mortality: number of animals with event
Procedure: (§1) The animals were anesthetized with thiopental (75 mg/kg ip). Depending on the model, either adrenaline, aconitine, or calcium chloride was used as an arrhythmogen. Adrenaline and aconitine were administered iv at a dose of 20 µg/kg, whereas calcium chloride was administered at a dose of 140 mg/kg to induce heart rhythm disturbances. The tested compounds were injected iv 15 min before the arrhythmogen. Aspel ASCARD apparatus (standard II lead, with the tape speed 50 mm/s and voltage calibration 1 mV = 1 cm) was used for ECG measurements. […] The ED50 was calculated using the method of Litchfield and Wilcoxon.

[3] = system: adrenaline-induced arrhythmia model in rats; assay: Therapeutic antiarrhythmic activity in adrenaline-induced arrhythmia; conditions: 5 mg/kg iv immediately after adrenaline 20 µg/kg; number of animals with event
normotensive rats = assay: Influence on blood pressure in the normotensive rats; assay type: in vivo, rat; conditions: for DBP—diastolic blood pressure / SBP—systolic blood pressure: mean ± SD
Procedure: The experiment was performed according to the method described earlier. Normotensive Wistar rats were anesthetized with thiopental (75 mg/kg ip). The right carotid artery was cannulated with a polyethylene tube filled with heparin solution, using a Datamax apparatus (Columbus Instruments, Columbus, OH, USA). After 15 min of the stabilization period, the studied compounds were administered iv, and their effect on systolic and diastolic blood pressure was evaluated (Figure 4A).

[4] = system: calcium chloride-induced arrhythmia model in rats; assay: Prophylactic antiarrhythmic activity in calcium chloride-induced arrhythmia; assay type: in vivo, rat; conditions: 5 mg/kg iv 15 min before calcium chloride 140 mg/kg; number of animals with event
Procedure: as §1

[5] = 0 min (prior to administration)
[6] = 0.25 mg/kg iv 15 min before adrenaline 20 μg/kg
[7] = 0.5 mg/kg iv 15 min before adrenaline 20 μg/kg
[8] = 1 mg/kg iv 15 min before adrenaline 20 μg/kg
[9] = 1.0 mg/kg iv, 0 min (before administration)
[10] = 2.5 mg/kg iv, 0 min (before administration)

Cl.NC(=O)c1ccccc1OCCCCCN1CCN(c2cccc(Cl)c2)CC1 [JJGW02, 2-{5-[4-(3-chlorophenyl)piperazin-1-ylo]pentoxy}benzamide hydrochloride]
Adrenergic Receptors—pKi α1 (α1-adrenergic receptors): 8.33 ± 0.02 | attenuation of the methoxamine pressor response [1]: 100% | dose affecting the heart rate relative to the ED50 value in the adrenaline-induced arrhythmia model (normal ECG in rats; 5 mg/kg iv vs ED50): 11 fold | HR—heart rate (normal ECG in rats; [5]): 311.1 ± 24.4 | PQ interval (normal ECG in rats; [5]): 42.6 ± 2.0 | QRS complex (normal ECG in rats; [5]): 36.0 ± 1.1 | QTc (Bazzett's formula) (normal ECG in rats; [5]): 183.3 ± 7.1 | decrease of the heart rate (normal ECG in rats; 5th min after the injection): 10% | decrease of the heart rate (normal ECG in rats; 10th min after the injection): 15% | decrease of the heart rate (normal ECG in rats; 15th min after the injection): 16% | HR—heart rate (normal ECG in rats; 5 min): 278.7 ± 37.0 | PQ interval (normal ECG in rats; 5 min): 41.7 ± 1.8 | QRS complex (normal ECG in rats; 5 min): 35.2 ± 1.2 | QTc (Bazzett's formula) (normal ECG in rats; 5 min): 175.4 ± 14.0 | HR—heart rate (normal ECG in rats; 10 min): 265.0 ± 30.1 | PQ interval (normal ECG in rats; 10 min): 42.2 ± 1.6 | QRS complex (normal ECG in rats; 10 min): 36.1 ± 1.8 | QTc (Bazzett's formula) (normal ECG in rats; 10 min): 173.2 ± 15.7 | HR—heart rate (normal ECG in rats; 15 min): 262.0 ± 37.3 | PQ interval (normal ECG in rats; 15 min): 44.8 ± 5.9 | QRS complex (normal ECG in rats; 15 min): 35.2 ± 0.7 | QTc (Bazzett's formula) (normal ECG in rats; 15 min): 175.1 ± 16.0 | Blocks [2, 6]: 5/6 | Bradycardia [2, 6]: 5/6 | Extrasystoles [2, 6]: 5/6 | Mortality [2, 6]: 3/6 | Blocks [2, 7]: 6/6 | Bradycardia [2, 7]: 5/6 | Extrasystoles [2, 7]: 5/6 | Mortality [2, 7]: 0/6 | Blocks [2, 8]: 5/6 | Bradycardia [2, 8]: 4/6 | Extrasystoles [2, 8]: 5/6 | Mortality [2, 8]: 1/6 | ED50 ([2]; prophylactic, iv 15 min before adrenaline 20 μg/kg, confidence limits in brackets (Litchfield and Wilcoxon)): 0.45 (0.11–1.77) mg/kg | Blocks [3]: 1/6 | Bradycardia [3]: 2/6 | Mortality [3]: 1/6 | DBP—diastolic blood pressure (normotensive rats; [9]): 87.7 ± 14.9 mmHg | SBP—systolic blood pressure (normotensive rats; [9]): 118.0 ± 10.5 mmHg | DBP—diastolic blood pressure (normotensive rats; 1.0 mg/kg iv, 5 min): 82.7 ± 16.0 mmHg | SBP—systolic blood pressure (normotensive rats; 1.0 mg/kg iv, 5 min): 113.7 ± 8.7 mmHg | DBP—diastolic blood pressure (normotensive rats; 1.0 mg/kg iv, 10 min): 83.3 ± 10.3 mmHg | SBP—systolic blood pressure (normotensive rats; 1.0 mg/kg iv, 10 min): 111.2 ± 6.4 mmHg | DBP—diastolic blood pressure (normotensive rats; 1.0 mg/kg iv, 20 min): 80.0 ± 14.1 mmHg | SBP—systolic blood pressure (normotensive rats; 1.0 mg/kg iv, 20 min): 109.7 ± 9.1 mmHg | DBP—diastolic blood pressure (normotensive rats; 1.0 mg/kg iv, 30 min): 73.7 ± 10.6 mmHg | SBP—systolic blood pressure (normotensive rats; 1.0 mg/kg iv, 30 min): 105.7 ± 7.5 mmHg | DBP—diastolic blood pressure (normotensive rats; 1.0 mg/kg iv, 40 min): 75.0 ± 13.2 mmHg | SBP—systolic blood pressure (normotensive rats; 1.0 mg/kg iv, 40 min): 107.7 ± 11.5 mmHg | DBP—diastolic blood pressure (normotensive rats; 1.0 mg/kg iv, 50 min): 73.7 ± 13.9 mmHg | SBP—systolic blood pressure (normotensive rats; 1.0 mg/kg iv, 50 min): 108.7 ± 12.9 mmHg | DBP—diastolic blood pressure (normotensive rats; 1.0 mg/kg iv, 60 min): 76.7 ± 19.2 mmHg | SBP—systolic blood pressure (normotensive rats; 1.0 mg/kg iv, 60 min): 111.0 ± 18.0 mmHg | DBP—diastolic blood pressure (normotensive rats; [10]): 84.8 ± 12.1 mmHg | SBP—systolic blood pressure (normotensive rats; [10]): 114.3 ± 15.7 mmHg | DBP—diastolic blood pressure (normotensive rats; 2.5 mg/kg iv, 5 min): 72.0 ± 9.4 ^c mmHg | SBP—systolic blood pressure (normotensive rats; 2.5 mg/kg iv, 5 min): 103.2 ± 13.0 ^c mmHg | DBP—diastolic blood pressure (normotensive rats; 2.5 mg/kg iv, 10 min): 72.8 ± 11.6 ^b mmHg | SBP—systolic blood pressure (normotensive rats; 2.5 mg/kg iv, 10 min): 104.2 ± 13.2 ^b mmHg | DBP—diastolic blood pressure (normotensive rats; 2.5 mg/kg iv, 20 min): 73.0 ± 9.6 ^b mmHg | SBP—systolic blood pressure (normotensive rats; 2.5 mg/kg iv, 20 min): 102.8 ± 13.4 ^b mmHg | DBP—diastolic blood pressure (normotensive rats; 2.5 mg/kg iv, 30 min): 72.3 ± 8.1 ^a mmHg | SBP—systolic blood pressure (normotensive rats; 2.5 mg/kg iv, 30 min): 103.7 ± 10.8 ^a mmHg | DBP—diastolic blood pressure (normotensive rats; 2.5 mg/kg iv, 40 min): 73.8 ± 9.4 ^a mmHg | SBP—systolic blood pressure (normotensive rats; 2.5 mg/kg iv, 40 min): 106.5 ± 10.6 mmHg | DBP—diastolic blood pressure (normotensive rats; 2.5 mg/kg iv, 50 min): 73.7 ± 8.7 mmHg | SBP—systolic blood pressure (normotensive rats; 2.5 mg/kg iv, 50 min): 103.2 ± 9.4 ^b mmHg | DBP—diastolic blood pressure (normotensive rats; 2.5 mg/kg iv, 60 min): 73.7 ± 7.9 ^a mmHg | SBP—systolic blood pressure (normotensive rats; 2.5 mg/kg iv, 60 min): 105.2 ± 9.7 ^a mmHg | decrease of the systolic blood pressure (normotensive rats; 2.5 mg/kg iv, between the 5th and 30th min and between the 50th and 60th min): 8–10% | decrease of the diastolic blood pressure (normotensive rats; 2.5 mg/kg iv, between the 5th to 40th min and in the 60th min): 13–15% | Blocks [4]: 5/6 | Bradycardia [4]: 6/6 | Extrasystoles [4]: 5/6 | Fibrillations [4]: 4/6 | Mortality [4]: 6/6
